# Reference: US20110015181A1, “ALKYLAMINOPYRIDINE DERIVATIVE” (priority 2008, published 2011)
# Experiments:
# human NPY Y1 receptor = target: T1, human NPY Y1 receptor (Homo sapiens, UniProt P25929); test: NPY binding inhibition test ([125I] peptide YY binding to membranes of NPY Y1 receptor expression cells); conditions: membrane of CHO-K1 cells expressing human NPY Y1 receptor, 25° C., 2 hours; read-out: IC50 against specific [125I] peptide YY binding
# T1 construct: expressed in transfected cells; host or cells: CHO-K1 NFAT β-Lactamase (Aurora)
# T1 sequence (P25929 1-384): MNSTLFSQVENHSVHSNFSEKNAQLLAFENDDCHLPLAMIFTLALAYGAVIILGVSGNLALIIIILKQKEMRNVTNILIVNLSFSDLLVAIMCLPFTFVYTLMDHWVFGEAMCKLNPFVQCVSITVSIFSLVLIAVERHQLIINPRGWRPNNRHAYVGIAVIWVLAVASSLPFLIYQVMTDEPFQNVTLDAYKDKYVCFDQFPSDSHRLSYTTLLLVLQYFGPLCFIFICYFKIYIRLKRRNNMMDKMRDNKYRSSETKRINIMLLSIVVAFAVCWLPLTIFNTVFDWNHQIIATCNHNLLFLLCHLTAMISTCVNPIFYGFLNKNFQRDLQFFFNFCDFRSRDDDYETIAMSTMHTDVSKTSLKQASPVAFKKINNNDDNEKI
# Protocol: A cDNA sequence encoding a human NPY Y1 receptor [Accession No. L07615] was cloned into expression vectors pEF1x (made by Invitrogen Inc.). The obtained expression vectors were transfected to host cells CHO-K1 NFAT β-Lactamase (Aurora) by cationic lipid method [see Proceedings of the National Academy of Sciences of the United States of America, 84: 7413 (1987)] to give NPY Y1 receptor expression cells.
# A membrane sample prepared from the cells which expressed the NPY Yl receptor was incubated together with a test compound and [^125I] peptide YY (manufactured by Amersham) (20,000 cpm) in an assay buffer (HBSS buffer (pH 7.4) containing 20 mM HEPES, 0.5% BSA, 1 mM phenylmethylsulfonylfluoride and 0.1% bacitracin) at 25° C. for 2 hours, then filtered through a glass filter GF/C, and washed with 20 mM HEPES buffer (pH 7.4), followed by measuring the radioactivity of the cake on the glass filter with γ counter. Nonspecific binding was measured in the presence of 1 μM peptide YY and a 50% Inhibitory Concentration (IC50) of the test compound against specific [^125I] peptide YY binding was determined [Endocrinology, 131: 2090 (1992)].
# human ERG (hERG) = human ERG (hERG) (Homo sapiens, UniProt Q12809); test: Affinity for human ERG (hERG); format: binding
# human ERG (hERG), sequence (Q12809 whole entry): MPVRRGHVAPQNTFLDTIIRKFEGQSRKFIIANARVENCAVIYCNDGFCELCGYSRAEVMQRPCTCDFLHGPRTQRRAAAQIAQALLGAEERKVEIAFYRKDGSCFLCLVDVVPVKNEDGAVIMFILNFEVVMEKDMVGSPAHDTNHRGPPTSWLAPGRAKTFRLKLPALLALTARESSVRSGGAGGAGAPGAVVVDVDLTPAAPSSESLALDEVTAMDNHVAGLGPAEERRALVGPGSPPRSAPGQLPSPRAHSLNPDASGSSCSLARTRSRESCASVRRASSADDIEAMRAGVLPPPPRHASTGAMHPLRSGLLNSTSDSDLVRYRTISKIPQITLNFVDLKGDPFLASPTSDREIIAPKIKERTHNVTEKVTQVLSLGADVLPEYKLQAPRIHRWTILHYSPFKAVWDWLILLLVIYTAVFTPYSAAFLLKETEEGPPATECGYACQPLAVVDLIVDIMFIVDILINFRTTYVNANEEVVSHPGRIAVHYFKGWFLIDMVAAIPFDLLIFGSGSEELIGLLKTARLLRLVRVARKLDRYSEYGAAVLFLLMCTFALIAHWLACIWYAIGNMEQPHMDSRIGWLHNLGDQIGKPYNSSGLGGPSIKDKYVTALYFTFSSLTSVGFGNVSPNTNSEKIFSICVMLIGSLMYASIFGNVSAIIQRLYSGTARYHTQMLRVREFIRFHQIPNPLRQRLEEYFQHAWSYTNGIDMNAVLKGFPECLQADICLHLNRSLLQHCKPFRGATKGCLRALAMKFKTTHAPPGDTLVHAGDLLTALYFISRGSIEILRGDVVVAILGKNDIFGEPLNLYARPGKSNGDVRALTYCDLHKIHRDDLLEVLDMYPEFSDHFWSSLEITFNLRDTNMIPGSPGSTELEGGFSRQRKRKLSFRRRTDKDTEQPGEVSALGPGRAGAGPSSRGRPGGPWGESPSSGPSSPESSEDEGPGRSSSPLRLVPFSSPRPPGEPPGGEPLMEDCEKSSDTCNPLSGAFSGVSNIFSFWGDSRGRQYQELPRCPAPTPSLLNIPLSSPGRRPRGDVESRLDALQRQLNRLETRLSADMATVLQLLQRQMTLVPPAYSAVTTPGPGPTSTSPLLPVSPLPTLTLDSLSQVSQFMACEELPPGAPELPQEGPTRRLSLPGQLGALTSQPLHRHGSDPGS
# Protocol: In addition, the affinities of compounds according to the present invention and compounds described in Patent Document 7 described above for human ERG (hERG) were examined. This examination method was carried out according to the method described in documents (for example, Japanese Unexamined Patent Application Publication No. 2004-512268).
# [1] = compounds according to the present invention
# [2] = compounds described in Patent Document 7 (WO 97/34873)
Structure (SMILES),IC50 (human NPY Y1 receptor),Activity for Human ERG (human ERG (hERG); [1]),Activity for Human ERG (human ERG (hERG); [2])
"CCc1oc(CC(O)c2cc(N3C4CCC3COC4)cc(NCC(F)(F)F)n2)nc1C (single isomer, unassigned) [Example 21]",26 nM,14 µM,
Cc1nc(SCc2cc(N3C4CCC3COC4)cc(NCC#N)n2)sc1C [Example 1],16 nM,33 µM,
"Cc1nc(SCc2cc(N3CCC(F)(F)CC3)cc(NCC(F)(F)F)n2)nn1C [Example 5, 4-(4,4-difluoro-1-piperidinyl)-6-{[(1,5-dimethyl-1H-1,2,4-triazol-3-yl)thio]methyl}-N-(2,2,2-trifluoroethyl)-2-pyridinamine]",17 nM,16 µM,
"Cc1cc(SCc2cc(N3CCC(F)(F)CC3)cc(NCC(F)(F)F)n2)nn1C [Example 9, 4-(4,4-difluoro-1-piperidinyl)-6-{[(1,5-dimethyl-1H-pyrazol-3-yl)thio]methyl}-N-(2,2,2-trifluoroethyl)-2-pyridinamine]",2.2 nM,5.3 µM,
O=S1(=O)CCN(c2cc(CSc3nc4c(o3)CCCC4)nc(NCC(F)(F)F)c2)CC1 [Example 12],27.5 nM,14 µM,
"Cc1nc(SCc2cc(N3CCCCCC3)cc(NCC(F)(F)F)n2)cn1C [Example 13, 4-(1-azepanyl)-6-{[(1,2-dimethyl-1H-imidazol-4-yl)thio]methyl}-N-(2,2,2-trifluoroethyl)-2-pyridinamine]",44 nM,8.2 µM,
"Cc1cc(CCc2cc(N3CCC(F)(F)CC3)cc(NCC#N)n2)nn1C [Example 32, ({4-(4,4-difluoro-1-piperidinyl)-6-[2-(1,5-dimethyl-1H-pyrazol-3-yl)ethyl]-2-pyridinyl}amino)acetonitrile]",10 nM,11 µM,
"Cc1nc(SCc2cc(N3CCSCC3)cc(NCC#N)n2)n(C)c1C [Example 34, [(4-(4-thiomorpholinyl)-6-{[(1,4,5-trimethyl-1H-imidazol-2-yl)thio]methyl}-2-pyridinyl)amino]acetonitrile]",6.5 nM,7.3 µM,
"COC(=O)CNc1cc(N2C3CCC2COC3)cc(CSc2nc(C)c(C)s2)n1 [Example 38, {[6-{[(4,5-dimethyl-1,3-thiazol-2-yl)thio]methyl}-4-(3-oxa-8-azabicyclo[3,2,1]octo-8-yl)-2-pyridinyl]amino}acetic acid methyl ester]",2.8 nM,7.4 µM,
"Cc1nc(SCc2cc(N3CCC(F)(F)CC3)cc(NCCS(C)(=O)=O)n2)oc1C [Example 48, 4-(4,4-difluoro-1-piperidinyl)-6-{[(4,5-dimethyl-1,3-oxazol-2-yl)thio]methyl}-N-[2-(methylsulfonyl)ethyl]-2-pyridinamine]",16 nM,5.9 µM,
CCc1nnc(SCc2cc(N3CCOCC3)cc(NCc3cccc(NC(C)=O)c3)n2)s1 [reference compound],,,0.57 µM
CCc1nnc(SCc2cc(N3CCOCC3)cc(NCc3cccc(O)c3)n2)s1 [reference compound],,,0.16 µM
CCc1nnc(SCc2cc(N3CCOCC3)cc(NCc3cccc(OC)c3)n2)s1 [reference compound],,,0.028 µM
